Source: patent publication EP0186275A2, “2-Substituted amino-4(1H)-pyrimidone derivatives, their production, and medical compositions containing them” (YAMANOUCHI PHARMACEUTICAL CO. LTD., priority 1984, dated 1986)
pIC50: −log10 of the molar value. Counter-ions that a name gives are not always drawn.

What was measured:
Male Wistar rats [1] = experiment: Gastric secretion inhibiting activity (pylorus-ligated rat, 4hr. shay rat); type: in vivo
Method: 2) Gastric secretion inhibiting activity: Male Wistar rats (about 200 g) were fasted but allowed free access to water for 24 hours prior to the experiment. The pylorus was ligated after abdominal midline incision under ether anesthesia. Four hours later, the animals were killed for the collection of gastric juice. The test compounds were given p.o. 1 hour before the pylorus ligation. Gastric juice (0.5 ml) was titrated against 0.05 N NaOH up to pH 7.0 to determine acid concentration using an automatic titrator (Hiranuma Sangyo Co., Comtite 7). The total acid output was calculated as the product of gastric volume by acid concentration.

Male Wistar rats [2] = experiment: Gastric cytoprotection (ethanol ulcer rat); type: in vivo
Method: 3) Gastric cytoprotection: Male Wistar rats (about 200 […]) were starved for 24 hours and deprived of water for 18 hours prior to the experiment. Absolute ethanol (1 ml/rat) was given orally to rats one hour after p.o. administration of the test compounds. One hour later, animals were sacrificed for the measurement of gastric lesions (mm^2).

histamine H2-receptor = molecular target: T1, histamine H2-receptor (Cavia porcellus, UniProt P47747); experiment: H2-Blocking activity (isolated guinea pig atrium, chronotropic response to histamine); type: cell-based; settings: isolated guinea pig atrium; test drugs 30 min. before 5 x 10^-6M histamine; dose producing 50% blockade of chronotropic response; read-out: 1)H2-bloc-kade guinea pig atrium ED50
T1 construct: The atrium isolated from quinea-pigs was mounted in an organ bath; from tissue; host or cells: isolated guinea pig atrium
T1 sequence (P47747 whole entry): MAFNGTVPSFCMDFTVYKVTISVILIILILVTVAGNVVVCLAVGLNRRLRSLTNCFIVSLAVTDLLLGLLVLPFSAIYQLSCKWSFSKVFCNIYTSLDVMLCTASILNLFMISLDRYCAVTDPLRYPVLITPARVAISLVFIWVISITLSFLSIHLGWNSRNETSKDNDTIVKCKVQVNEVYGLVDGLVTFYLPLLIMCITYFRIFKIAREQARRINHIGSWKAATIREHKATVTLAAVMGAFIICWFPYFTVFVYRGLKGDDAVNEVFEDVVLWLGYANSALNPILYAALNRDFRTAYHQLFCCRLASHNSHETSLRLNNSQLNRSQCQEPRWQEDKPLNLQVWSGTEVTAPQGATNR
Method: In addition, the experiments were performed using a known compound, TZU-0460, i. e., N-[3-(3-(1-piperi- dinylmethyl)phenoxy]propyl]acetoxyacetamide hydrochloride shown by the following formula [drawing 9] HC1 disclosed in European Patent No. 24,510. • 1. Experimental procedure • 1) H2-Blocking activity:
The atrium isolated from quinea-pigs was mounted in an organ bath containing Krebs-Henseleit solution gassed with 95% 02 and 5% C02 at 37°C. The spontaneous movement of the atrium was recorded through a strain gauge (Nihon Koden, SB-1T) on a polygraph (Nihon Koden, RM-6200). The tissue was exposed to test drugs 30 min. before treatment with 5 x 10-^6M histamine. The dose of test drugs producing 50%blockade of chronotropic response to histamine was obtained from each preparation.

Acute toxicity LD50 iv = settings: in vivo, species not given
[3] = Rattus norvegicus, po, 4 h; p.o. 1 hour before pylorus ligation; gastric juice collected four hours later; total acid output; read-out: 2)Anti-secretion 4hr. shay rat ED50 (mg/kg p.o.)
[4] = po, 1 h, p.o., absolute ethanol (1 ml/rat) orally one hour after test compound; gastric lesions measured one hour later; read-out: 3)Cytopro-tection ethanol ulcer rat ED50(mg/kg p.o.)

SMILES	ED50 (Male Wistar rats [1]; [3])	ED50 (Male Wistar rats [2]; [4])	pIC50 (histamine H2-receptor)	LD50 (Acute toxicity LD50 iv)	ED50 (Male Wistar rats [1]; Rattus norvegicus, po, 4 h, read-out: 2)Anti-secretion 4hr. shay rat ED50 (mg/kg p.o.))	ED50 (Male Wistar rats [2]; Rattus norvegicus, po, 1 h, read-out: 3)Cytopro-tection ethanol ulcer rat ED50(mg/kg p.o.))
CCCCCCCc1c(C)[nH]c(NCCCOc2cccc(CN3CCCCC3)c2)nc1=O [Example 1, 5-heptyl-6-methyl-2-[3-[m-(piperidinomethyl)phenoxy]-propylamino]-4(lH)-pyrimidone di-hydrochloride]	2.6 mg/kg	6 mg/kg	< 6.00	–	–	–
CCCCc1c(C)[nH]c(NCCCOc2cccc(CN3CCCCC3)c2)nc1=O [Example 4, 5-butyl-6-methyl-2-L3-[m-(piperidinomethyl)phenoxy]propylamino]-4(1H)-pyrimidone dihydrochloride]	6.4 mg/kg	5.8 mg/kg	6.38	61.1 mg/kg	–	–
CCCCCc1c(CC)[nH]c(NCCCOc2cccc(CN3CCCCC3)c2)nc1=O [Example 5, 6-Ethyl-5-pentyl-2-f3-[m-(piperidinomethyl)phenoxy]-propylamino]-4(lH)-pyrimidone dihydrochloride-dihydrate]	19 mg/kg	9.6 mg/kg	5.05	–	–	–
CCCc1c(C)[nH]c(NCCCOc2cccc(CN3CCCCC3)c2)nc1=O [Example 7, 6-Methyl-2-[3-[m-(piperidinomethyl)phenoxy]propylamino]-5-propyl-4(lH)-pyrimidone]	6.1 mg/kg	6.6 mg/kg	6.29	–	–	–
C#CCc1c(C)[nH]c(NCCCOc2cccc(CN3CCCCC3)c2)nc1=O [Example 9]	3.1 mg/kg	23.3 mg/kg	6.68	–	–	–
CC=CCc1c(C)[nH]c(NCCCOc2cccc(CN3CCCC(C)C3)c2)nc1=O (centres unmarked) [Example 12, 5-(2-Butenyl)-6-methyl-2-[3-[m-(3-methylpiperidino-methyl)phenoxy]propylamino]-4(1H)-pyrimidone]	16.4 mg/kg	6.7 mg/kg	6.21	42.5 mg/kg	–	–
CC=CCc1c(C)[nH]c(NCCCOc2cccc(CN3CCCC3)c2)nc1=O [Example 14, 5-(2-Butenyl)-6-methyl-2-[3-[m-(pyrrolidinylmethyl)-phenoxy]propylamino]-4(1H)-pyrimidone]	9.9 mg/kg	41.4 mg/kg	6.09	–	–	–
CCSCCc1c(C)[nH]c(NCCCOc2cccc(CN3CCCCC3)c2)nc1=O [Example 15, 5-(2-Ethylthioethyl)-6-methyl-2-[3-[m-(piperidinomethyl)phenoxy]propylamino]-4(lH)-pyrimidone]	10.9 mg/kg	25.4 mg/kg	6.40	–	–	–
CC(C)=CCc1c(C)[nH]c(NCCCOc2cccc(CN3CCCCC3)c2)nc1=O [Example 26, 6-methyl-5-(3-methyl-2-butenyl)-2-[3-[m-(piperidinomethyl)phenoxy]propylamino]-4(1H)-pyrimidone]	5.2 mg/kg	20.5 mg/kg	6.44	–	–	–
C=CCc1c(C)[nH]c(NCCCOc2cccc(CN3CCCC(C)C3)c2)nc1=O (centres unmarked) [Example 30, 5-(2-Propenyl)-6-me thyl-2-[3-[m-(3-methylpiperidi-nomethyl)phenoxy]propylamino]-4(lH)-pyrimidone]	18 mg/kg	17 mg/kg	6.77	–	–	–
C=C(C)Cc1c(C)[nH]c(NCCCOc2cccc(CN3CCCC(C)C3)c2)nc1=O (centres unmarked) [Example 31, 6-Methyl-2-[3-[m-(3-methylpiperidinomethyl)pheno- : xy]propylamino]-5-(2-methyl-2-propenyl)-4(lH)-pyrimidone]	30.1 mg/kg	13.6 mg/kg	6.54	–	–	–
CC(=O)OCC(=O)NCCCOc1cccc(CN2CCCCC2)c1 [TZU-0460, N-[3-(3-(1-piperi-dinylmethyl)phenoxy]propyl]acetoxyacetamide hydrochloride, reference compound]	–	–	6.43	–	35.1 mg/kg	46.4 mg/kg
